Test results taken from the supplement of paper PMC10627819.

What was measured:
S. aureus Newman [1] = test: Bliss interaction score (quartile over a dose matrix) (fitness difference); higher = more antagonism (negative = synergy)
Outline: (§1)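 Each OD595 reading at entry into stationary phase was scaled to the robust mean of the untreated wells on its plate, with a ceiling of 1. These ratios define fitness, and single-drug fitness was inferred from combinations. The Bliss score compares observed fitness with the product-based expectation and is reported as quartiles across all replicate types, technical, biological and donor/recipient.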

S. aureus DSM 20231 [2] = test: as above
Outline: as §1

S. pneumoniae D39V [3] = test: as above
Outline: as §1

B. subtilis 168 [4] = test: as above
Outline: as §1

S. aureus Newman [5] = test: fitness (endpoint OD595 vs no drug) (fraction); higher = more growth
Outline: (§2)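 In 384-well plates at 37 °C, cultures began at OD595 0.01 in 30 µl, with 55 µl used for S. pneumoniae. OD595 readings every 30 min for 14 h were corrected by the first reading. Fitness divides the stationary-phase transition optical density by the robust mean of no-drug control wells. The result is capped at 1.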

S. aureus DSM 20231 [6] = test: as above
Outline: as §2

S. pneumoniae D39V [7] = test: as above
Outline: as §2

B. subtilis 168 [8] = test: as above
Outline: as §2
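Throughout, for Bliss interaction score (quartile over a dose matrix): first quartile when negative (synergy) and third quartile when positive (antagonism).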
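Throughout, for fitness (endpoint OD595 vs no drug): OD595 on entry to stationary phase over no-drug wells; at most 1.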

COc1c(N2C[C@@H]3CCCN[C@@H]3C2)c(F)cc2c(=O)c(C(=O)O)cn(C3CC3)c12 [Moxifloxacin] + CN[C@@H]1[C@H](O)[C@H](NC)[C@H]2O[C@@]3(O)C(=O)C[C@@H](C)O[C@H]3O[C@@H]2[C@H]1O [Spectinomycin]
Settings | Bliss interaction score
B. subtilis 168 [4] | -0.0287
S. aureus DSM 20231 [2] | -0.0426
S. aureus Newman [1] | -0.0569
S. pneumoniae D39V [3] | 0.0328

fitness
Settings | partner 2 µg/mL | partner 4 µg/mL | partner 8 µg/mL | partner 16 µg/mL
B. subtilis 168 [8], first compound 0.0312 µg/mL | 0.0488 | 0.0437 | 0.0518 | –
B. subtilis 168 [8], first compound 0.0625 µg/mL | 0.0414 | 0.0348 | 0.0153 | –
B. subtilis 168 [8], first compound 0.125 µg/mL | 0.026 | 0.0367 | 0.0296 | –
B. subtilis 168 [8], first compound 2 µg/mL | 0.0229 | 0.0184 | 0.0086 | –
B. subtilis 168 [8], first compound 4 µg/mL | 0.0296 | 0.0084 | 0.0039 | –
B. subtilis 168 [8], first compound 8 µg/mL | 0.0255 | 0.02 | 0.0092 | –
S. aureus DSM 20231 [6], first compound 0.0075 µg/mL | – | 0.822 | 0.848 | 0.731
S. aureus DSM 20231 [6], first compound 0.015 µg/mL | – | 0.725 | 0.734 | 0.743
S. aureus DSM 20231 [6], first compound 0.03 µg/mL | – | 0.654 | 0.74 | 0.694
S. aureus Newman [5], first compound 0.0075 µg/mL | – | 0.742 | 0.748 | 0.7
S. aureus Newman [5], first compound 0.015 µg/mL | – | – | – | 0.497
S. aureus Newman [5], first compound 0.03 µg/mL | – | – | 0.0882 | 0.0514
S. pneumoniae D39V [7], first compound 0.005 µg/mL | – | 0.923 | 0.936 | 0.82
S. pneumoniae D39V [7], first compound 0.01 µg/mL | – | 0.944 | 0.93 | 0.836
S. pneumoniae D39V [7], first compound 0.02 µg/mL | – | 0.896 | 0.843 | 0.796

one replicate
Settings | fitness
S. aureus DSM 20231 [6], first compound 0.0075 µg/mL, partner 32 µg/mL | 0.666
S. aureus DSM 20231 [6], first compound 0.0075 µg/mL, partner 64 µg/mL | 0.0692
S. aureus DSM 20231 [6], first compound 0.015 µg/mL, partner 32 µg/mL | 0.656
S. aureus DSM 20231 [6], first compound 0.015 µg/mL, partner 64 µg/mL | 0.0534
S. aureus DSM 20231 [6], first compound 0.03 µg/mL, partner 32 µg/mL | 0.625
S. aureus DSM 20231 [6], first compound 0.03 µg/mL, partner 64 µg/mL | 0.0231
S. aureus DSM 20231 [6], first compound 0.06 µg/mL, partner 4 µg/mL | 0.664
S. aureus DSM 20231 [6], first compound 0.06 µg/mL, partner 8 µg/mL | 0.675
S. aureus DSM 20231 [6], first compound 0.06 µg/mL, partner 16 µg/mL | 0.673
S. aureus DSM 20231 [6], first compound 0.12 µg/mL, partner 4 µg/mL | 0.505
S. aureus DSM 20231 [6], first compound 0.12 µg/mL, partner 8 µg/mL | 0.457
S. aureus DSM 20231 [6], first compound 0.12 µg/mL, partner 16 µg/mL | 0.523
S. aureus Newman [5], first compound 0.0075 µg/mL, partner 32 µg/mL | 0.464
S. aureus Newman [5], first compound 0.0075 µg/mL, partner 64 µg/mL | 0.0581
S. aureus Newman [5], first compound 0.015 µg/mL, partner 32 µg/mL | 0.294
S. aureus Newman [5], first compound 0.015 µg/mL, partner 64 µg/mL | 0.047
S. aureus Newman [5], first compound 0.03 µg/mL, partner 32 µg/mL | 0.0318
S. aureus Newman [5], first compound 0.03 µg/mL, partner 64 µg/mL | 0.0289
S. pneumoniae D39V [7], first compound 0.0037 µg/mL, partner 4 µg/mL | 0.897
S. pneumoniae D39V [7], first compound 0.0037 µg/mL, partner 8 µg/mL | 0.83
S. pneumoniae D39V [7], first compound 0.0075 µg/mL, partner 4 µg/mL | 0.912
S. pneumoniae D39V [7], first compound 0.0075 µg/mL, partner 8 µg/mL | 0.816
S. pneumoniae D39V [7], first compound 0.015 µg/mL, partner 4 µg/mL | 0.891
S. pneumoniae D39V [7], first compound 0.015 µg/mL, partner 8 µg/mL | 0.813

CCC[C@@H]1C[C@@H](C(=O)N[C@@H]([C@H]2O[C@H](SC)[C@H](O)[C@@H](O)[C@H]2O)[C@H](C)Cl)N(C)C1 [Clindamycin] + Cc1ncc([N+](=O)[O-])n1CCO [Metronidazole]
Settings | Bliss interaction score
B. subtilis 168 [4] | 0.0367
S. aureus DSM 20231 [2] | 0.0542
S. aureus Newman [1] | 0.0887
S. pneumoniae D39V [3] | 0.0971

Settings | fitness
B. subtilis 168 [8], first compound 0.0625 µg/mL, partner 0.625 µg/mL | 0.572
B. subtilis 168 [8], first compound 0.0625 µg/mL, partner 1.25 µg/mL | 0.54
B. subtilis 168 [8], first compound 0.0625 µg/mL, partner 2.5 µg/mL | 0.548
B. subtilis 168 [8], first compound 0.125 µg/mL, partner 0.625 µg/mL | 0.403
B. subtilis 168 [8], first compound 0.125 µg/mL, partner 1.25 µg/mL | 0.38
B. subtilis 168 [8], first compound 0.125 µg/mL, partner 2.5 µg/mL | 0.373
B. subtilis 168 [8], first compound 0.25 µg/mL, partner 0.625 µg/mL | 0.38
B. subtilis 168 [8], first compound 0.25 µg/mL, partner 1.25 µg/mL | 0.381
B. subtilis 168 [8], first compound 0.25 µg/mL, partner 2.5 µg/mL | 0.369
S. aureus DSM 20231 [6], first compound 0.125 µg/mL, partner 0.625 µg/mL | 0.0566
S. aureus DSM 20231 [6], first compound 0.125 µg/mL, partner 1.25 µg/mL | 0.0685
S. aureus DSM 20231 [6], first compound 0.125 µg/mL, partner 2.5 µg/mL | 0.0748
S. aureus Newman [5], first compound 0.0312 µg/mL, partner 0.625 µg/mL | 0.666
S. aureus Newman [5], first compound 0.0312 µg/mL, partner 1.25 µg/mL | 0.801
S. aureus Newman [5], first compound 0.0312 µg/mL, partner 2.5 µg/mL | 0.821
S. aureus Newman [5], first compound 0.0625 µg/mL, partner 1.25 µg/mL | 0.425
S. aureus Newman [5], first compound 0.0625 µg/mL, partner 2.5 µg/mL | 0.444
S. aureus Newman [5], first compound 0.125 µg/mL, partner 0.625 µg/mL | 0.0588
S. aureus Newman [5], first compound 0.125 µg/mL, partner 1.25 µg/mL | 0.056
S. aureus Newman [5], first compound 0.125 µg/mL, partner 2.5 µg/mL | 0.0505
S. pneumoniae D39V [7], first compound 0.0125 µg/mL, partner 1.25 µg/mL | 0.815
S. pneumoniae D39V [7], first compound 0.0125 µg/mL, partner 2.5 µg/mL | 0.827
S. pneumoniae D39V [7], first compound 0.0125 µg/mL, partner 5 µg/mL | 0.828
S. pneumoniae D39V [7], first compound 0.015 µg/mL, partner 1.073 µg/mL | 0.956
S. pneumoniae D39V [7], first compound 0.015 µg/mL, partner 2.145 µg/mL | 0.912
S. pneumoniae D39V [7], first compound 0.015 µg/mL, partner 4.29 µg/mL | 0.841
S. pneumoniae D39V [7], first compound 0.025 µg/mL, partner 1.25 µg/mL | 0.581
S. pneumoniae D39V [7], first compound 0.025 µg/mL, partner 2.5 µg/mL | 0.553
S. pneumoniae D39V [7], first compound 0.025 µg/mL, partner 5 µg/mL | 0.518
S. pneumoniae D39V [7], first compound 0.03 µg/mL, partner 1.073 µg/mL | 0.833
S. pneumoniae D39V [7], first compound 0.03 µg/mL, partner 2.145 µg/mL | 0.839
S. pneumoniae D39V [7], first compound 0.03 µg/mL, partner 4.29 µg/mL | 0.771
S. pneumoniae D39V [7], first compound 0.05 µg/mL, partner 1.25 µg/mL | 0.269
S. pneumoniae D39V [7], first compound 0.05 µg/mL, partner 2.5 µg/mL | 0.242
S. pneumoniae D39V [7], first compound 0.05 µg/mL, partner 5 µg/mL | 0.246
S. pneumoniae D39V [7], first compound 0.06 µg/mL, partner 1.073 µg/mL | 0.61
S. pneumoniae D39V [7], first compound 0.06 µg/mL, partner 2.145 µg/mL | 0.682
S. pneumoniae D39V [7], first compound 0.06 µg/mL, partner 4.29 µg/mL | 0.642

fitness, one replicate
Settings | first compound 0.0039 µg/mL | first compound 0.0078 µg/mL | first compound 0.0156 µg/mL | first compound 0.0312 µg/mL | first compound 0.0625 µg/mL | first compound 0.125 µg/mL
B. subtilis 168 [8], partner 0.625 µg/mL | 0.918 | 0.528 | 0.83 | – | – | –
B. subtilis 168 [8], partner 1.25 µg/mL | 0.984 | 0.804 | 0.842 | – | – | –
B. subtilis 168 [8], partner 2.5 µg/mL | 0.907 | 0.547 | 0.867 | – | – | –
S. aureus Newman [5], partner 0.781 µg/mL | – | – | – | 0.71 | 0.533 | 0.0936
S. aureus Newman [5], partner 1.562 µg/mL | – | – | – | 0.72 | 0.582 | 0.13
S. aureus Newman [5], partner 3.124 µg/mL | – | – | – | 0.688 | 0.595 | 0.113

O=C(O[C@@H]1Cc2c(O)cc(O)cc2O[C@@H]1c1cc(O)c(O)c(O)c1)c1cc(O)c(O)c(O)c1 [EGCG] + CC1=C\[C@@H](O)CC(=O)Cc2nc(co2)C(=O)N2CCC=C2C(=O)O[C@H](C(C)C)[C@H](C)/C=C/C(=O)NC\C=C\1 [Virginiamycin M1]
Settings | Bliss interaction score
B. subtilis 168 [4] | 0.0619
S. aureus DSM 20231 [2] | 0.119
S. aureus Newman [1] | 0.0651
S. pneumoniae D39V [3] | -0.092

fitness
Settings | partner 0.0625 µg/mL | partner 0.125 µg/mL | partner 0.25 µg/mL | partner 0.5 µg/mL | partner 1 µg/mL | partner 2 µg/mL
B. subtilis 168 [8], first compound 6.25 µg/mL | 0.973 | 0.974 | 0.997 | – | – | –
S. aureus DSM 20231 [6], first compound 12.5 µg/mL | 0.86 | 0.931 | 0.686 | – | – | –
S. aureus DSM 20231 [6], first compound 25 µg/mL | 0.859 | ≥ 1 | 0.904 | – | – | –
S. aureus DSM 20231 [6], first compound 50 µg/mL | 0.76 | 0.986 | 0.82 | – | – | –
S. aureus Newman [5], first compound 12.5 µg/mL | 0.811 | 0.858 | 0.817 | – | – | –
S. aureus Newman [5], first compound 25 µg/mL | 0.868 | 0.897 | 0.865 | – | – | –
S. aureus Newman [5], first compound 50 µg/mL | 0.925 | 0.96 | 0.878 | – | – | –
S. pneumoniae D39V [7], first compound 12.5 µg/mL | – | – | – | 0.973 | 0.958 | 0.921
S. pneumoniae D39V [7], first compound 25 µg/mL | – | – | – | ≥ 1 | ≥ 1 | 0.89
S. pneumoniae D39V [7], first compound 50 µg/mL | – | – | – | 0.965 | 0.946 | 0.889

fitness, one replicate
Settings | first compound 12.5 µg/mL | first compound 25 µg/mL | first compound 50 µg/mL
S. aureus DSM 20231 [6], partner 0.5 µg/mL | 0.807 | 0.715 | 0.694
S. aureus DSM 20231 [6], partner 1 µg/mL | 0.67 | 0.65 | 0.543
S. aureus Newman [5], partner 0.5 µg/mL | 0.678 | 0.728 | 0.682
S. aureus Newman [5], partner 1 µg/mL | 0.702 | 0.715 | 0.677
S. aureus Newman [5], partner 2 µg/mL | 0.671 | 0.624 | 0.622
S. pneumoniae D39V [7], partner 0.15 µg/mL | 0.891 | 0.872 | 0.883
S. pneumoniae D39V [7], partner 0.3 µg/mL | 0.823 | 0.847 | 0.842
